Source: PubChem BioAssay AID686931 (Broad Institute, 2013)
“And” between values parts separate entries of the source, which are not always exact repeats. Equal entries are not always repeated. The source made the active and inactive calls. How the calls were made is not given here.

Tested on: not listed separately
Assay: Confirmatory dose response, V. cholerae DH231 delta cqsS, luciferase light activation (AID 686931)
Details: V. cholerae DH231 (delta cqsS) luciferase light production; at 35 µM (top of the series)

SMILES	activation
O=C(CC1CCCCC1)Nc1nnc(-c2ccc3c(c2)CCCC3)o1	0.843% (inactive)

Same assay, conditions: V. cholerae DH231 (delta cqsS) luciferase light production; at 50 µM (top of the series)

SMILES	activation
CCCCCCCCCC(=O)C(O)CC (configuration not stated)	-0.408% (inactive)

Same assay, conditions: V. cholerae DH231 (delta cqsS) luciferase light production; at 80 µM (top of the series)

SMILES	activation
Cc1ccc2cc3c(NC(=O)c4ccoc4)nn(C)c3nc2c1	10.6% (inactive)
CCC(C)(C)C(=O)Nc1nnc(-c2ccc3c(c2)OCCO3)o1	0.359% (inactive)
O=C(Nc1nnc(-c2ccc(Cl)cc2)o1)C1CCCCC1	-1.2% (inactive)
O=C(Nc1nnc(-c2cccc(Cl)c2)o1)C1CCCCC1	1.82% (inactive)
O=C(CC1CCCCC1)Nc1nnc(-c2cccnc2)o1	-0.959% (inactive)
O=C(Nc1nnc(-c2ccc3c(c2)OCCO3)o1)C1CCCC1	8.16% (inactive)
O=C(Nc1nnc(-c2ccc3c(c2)CCCC3)o1)C1CCC1	-0.346% (inactive)

Same assay, conditions: V. cholerae DH231 (delta cqsS) luciferase light production; at 100 µM (top of the series)

SMILES	activation
COc1ccc(S(=O)(=O)Nc2nnc(-c3ccc4c(c3)OCCO4)o2)cc1	-1.4% (inactive)
O=S(=O)(Nc1nnc(-c2ccc3c(c2)OCCO3)o1)c1ccc(Cl)cc1	-1.11% (inactive)
Cc1ccc2cc3c(NC(=O)c4ccc(C)o4)nn(C)c3nc2c1	0.174% (inactive)
O=C(Nc1nnc(-c2ccc3c(c2)OCCO3)o1)C1CCC1	0.218% (inactive)
COc1ccc(-c2nnc(NC(C)=O)o2)cc1	1.64% (inactive)
CN1CCC(C(=O)Nc2nnc(-c3ccc4c(c3)OCCO4)o2)CC1	0.079% (inactive)
O=C(Cc1ccc(-c2ccccc2)cc1)NC1CCC1	-0.546% (inactive)
O=C(Nc1nnc(-c2ccccc2Cl)o1)C1CCCCC1	0.072% (inactive)
Cn1nc(NC(=O)c2ccco2)c2cc3ccc(C(C)(C)C)cc3nc21	-1.04% (inactive)
O=C(Nc1nnc(C2CCCC2)o1)C1CCCCC1	-0.731% (inactive)
O=C(Nc1nnc(-c2ccc3c(c2)OCCO3)o1)C1CC1	-0.326% (inactive)
Cn1ccc(NC(=O)c2ccco2)n1	0.502% (inactive)
CN(C)/C=N/c1nnc(-c2ccc3c(c2)OCCO3)o1	-0.521% (inactive)
C(=N\c1nnc(-c2ccc3c(c2)OCCO3)o1)/c1ccccc1	0.573% (inactive)
CCn1nnnc1NCc1ccc(C(C)C)cc1	-0.577% (inactive)
Cc1ccc2cc3c(NC(=O)c4ccccn4)nn(C)c3nc2c1	1.04% (inactive)
O=C(Nc1nnc(-c2cccnc2)o1)C1CCC1	0.588% (inactive)
CC(C)c1ccc2cc3c(NC(=O)c4ccco4)nn(C)c3nc2c1	2.47% (inactive)
CC(C)(C)OC(=O)N1CCC(C(=O)Nc2nnc(-c3ccc4c(c3)OCCO4)o2)CC1	0.619% (inactive)
O=C(Nc1nnc(-c2ccncc2)o1)C1CCC1	0.692% (inactive)
CCCCCCCCCC(=O)[C@H](O)CC (racemic)	-0.642% (inactive)
Cc1ccc2cc3c(NC(=O)c4cc5ccccc5o4)nn(C)c3nc2c1	0.496% (inactive)
c1ccc(CNc2nnc(-c3ccc4c(c3)OCCO4)o2)cc1	-0.54% (inactive)
O=C(Nc1nnc(-c2ccc3c(c2)OCCO3)o1)C(F)(F)c1ccccc1	-1.19% (inactive)
COc1cccc(-c2nnc(NC(=O)C3CCCCC3)o2)c1	3.05% (inactive)
Cc1ccc2cc3c(NC(=O)Cc4ccco4)nn(C)c3nc2c1	13.6% (inactive)

Tested on: V. cholerae DH231 (delta cqsS) luciferase light production
Assay: as above
Details: not given

SMILES	AC40
Cc1cc(F)cc2nc3c(cc12)c(NC(=O)c1ccco1)nn3C	70.7 µM
Cc1cc2nc3c(cc2cc1F)c(NC(=O)c1ccco1)nn3C	21.7 µM
O=C(Nc1nnc(-c2ccc3c(c2)OCCO3)o1)C1CCCCCC1	10.5 µM
Cn1nc(NC(=O)c2ccco2)c2cc3ccccc3nc21	4.18 µM
Cc1cc2cc3c(NC(=O)c4ccco4)nn(C)c3nc2cc1C	22.2 µM
COc1ccc2cc3c(NC(=O)c4ccco4)nn(C)c3nc2c1	1.83 µM
Cn1nc(NC(=O)c2ccco2)c2cccnc21	20.4 µM
Cc1cc(F)c2cc3c(NC(=O)c4ccco4)nn(C)c3nc2c1	76.2 µM
COc1ccc(-c2nnc(NC(=O)C3CCCCC3)o2)cc1	> 100 µM (inactive)
COc1ccccc1-c1nnc(NC(=O)C2CCCCC2)o1	> 100 µM (inactive)
Cc1ccc2cc3c(NC(=O)c4ccco4)nn(C)c3nc2c1	6.52 µM and 15.8 µM
O=C(Nc1nnc(-c2cccnc2)o1)C1CCCCC1	88.1 µM
CCc1ccc2cc3c(NC(=O)c4ccco4)nn(C)c3nc2c1	31 µM
O=C(Nc1nnc(-c2ccc3c(c2)OCCO3)o1)C1CCCCC1	4.54 µM and 1.67 µM
Cc1ccc2cc3c(NC(=O)C4CCCC4)nn(C)c3nc2c1	37.9 µM
Cn1nc(NC(=O)c2ccco2)c2ccccc21	78.1 µM
Cc1ccc2cc3c(NC(=O)c4cccs4)nn(C)c3nc2c1	75.3 µM
